3 compounds from patent US20240398732A1, “Treating Cancers with Combinations of Spironolactone and Acylfulvenes” (LANTERN PHARMA INC., priority 2021, published 2024) can be followed below.

The structures appear in SMILES notation. Entries after “also recorded” stand apart in the source; their conditions may differ. Where two headings read alike, the source gives them in different places.

In data set [1] the test system is subcutaneous U87 xenograft tumors. Put plainly: Subcutaneous U87 xenograft in SCID mice. As to conditions: Spironolactone 25 mg/kg i.p. 5 days per week from day 8; LP-184 4 mg/kg i.v. every other day for 4 doses from day 9.
Method: (§1) SCID mice bearing pre-established subcutaneous U87 xenograft tumors were treated with Spironolactone alone, LP-184 alone or their combination. Spironolactone treatment began on post implantation day 8 at 25 mg/kg intraperitoneally 5 days per week, and LP-184 on day 9 at 4 mg/kg intravenously every other day for 4 doses.
For data set [2] the test system is unchanged. The following applies: beginning on ~day 25.
Method: as §1
Data set [3] has as its system U87 (glioblastoma cell line). Put plainly: U87 cell growth / survival / viability in vitro. It counts as cell-based. The following applies: for IC50: Homo sapiens, U-87 MG.
The test system of data set [4] is Mayo39 (Glioblastoma cell line). The data set is described as follows: Mayo39 cell viability in vitro. In kind it is cell-based.
The test system of data set [5] is U87, M1123 and Mayo39 glioblastoma cultures. The data set is described as follows: GBM cell viability, pooled statement on IC50 shift. In kind it is cell-based. As to conditions: with 5 μM Spironolactone.
Data set [6] deals with M1123 (glioblastoma cell line). Put plainly: M1123 cell viability in vitro. In kind it is cell-based.
Data set [7] deals with RPMI 8226 human myeloma cell lines. Put plainly: RPMI 8226 cell growth / cytotoxicity in vitro. It counts as cell-based.
A further data set addresses T1, ERCC3 (Homo sapiens, UniProt P19447).
T1 construct: endogenous in cells; host or cells: M1123, Mayo39, U87 glioblastoma cell lines
T1 sequence (P19447 1-782): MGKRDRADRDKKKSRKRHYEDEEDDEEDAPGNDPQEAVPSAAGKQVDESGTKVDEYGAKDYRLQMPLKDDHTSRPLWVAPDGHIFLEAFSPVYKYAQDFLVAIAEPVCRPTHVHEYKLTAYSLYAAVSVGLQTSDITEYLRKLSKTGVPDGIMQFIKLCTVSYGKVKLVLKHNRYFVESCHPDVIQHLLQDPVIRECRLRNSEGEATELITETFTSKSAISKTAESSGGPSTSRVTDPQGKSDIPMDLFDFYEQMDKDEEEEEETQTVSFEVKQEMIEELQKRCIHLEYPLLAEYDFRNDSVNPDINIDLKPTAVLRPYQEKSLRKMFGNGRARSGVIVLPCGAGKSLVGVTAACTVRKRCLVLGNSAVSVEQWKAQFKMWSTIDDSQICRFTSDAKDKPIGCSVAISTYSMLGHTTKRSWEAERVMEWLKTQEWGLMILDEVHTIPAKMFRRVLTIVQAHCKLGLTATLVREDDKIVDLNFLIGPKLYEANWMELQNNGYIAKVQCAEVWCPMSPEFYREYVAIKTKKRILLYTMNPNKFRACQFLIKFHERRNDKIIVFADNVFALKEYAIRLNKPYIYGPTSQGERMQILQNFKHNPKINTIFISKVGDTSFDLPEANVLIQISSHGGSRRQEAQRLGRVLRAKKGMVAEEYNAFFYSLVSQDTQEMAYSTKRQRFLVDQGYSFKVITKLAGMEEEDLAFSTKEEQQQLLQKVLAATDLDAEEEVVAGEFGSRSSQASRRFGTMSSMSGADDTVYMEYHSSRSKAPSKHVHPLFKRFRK
The data set is described as follows: ERCC3 western blot in glioblastoma cell lines. It counts as cell-based. As to conditions: 10 μM spironolactone, over 24-72 hours. As for the experimental part:
Representative images show quantification of ERCC3 western blot intensity with significant Spironolactone-mediated ERCC3 downregulation over 24-72 hours in different glioblastoma cell lines.

Data set [8] concerns CAKI-2 (papillary renal cell carcinoma cell line). Put plainly: CAKI-2 cell growth / survival in vitro. In kind it is cell-based. As to conditions: spironolactone alone.
For data set [9], the system named is CHLA-06 (atypical teratoid rhabdoid tumor cell line). Put plainly: CHLA-06 cell growth / survival in vitro. It counts as cell-based. The following applies: spironolactone alone (10 μM).
For data set [10], the system named is ACHN (renal cell carcinoma cell line). The data set is described as follows: ACHN cell growth / survival in vitro. It counts as cell-based. As to conditions: 10 μM spironolactone alone.
Data set [11] concerns 22RV1 (prostate cell line). Put plainly: 22RV1 cell growth / survival in vitro. It counts as cell-based. The following applies: 10 μM spironolactone alone.
[12] abbreviates: LP-184 alone, read-out: LP-184 alone IC50 [mean value.
Setting [13] is: with 5 uM Spironolactone, read-out: LP-184 IC50 [mean value, nM] in combination with 5 uM Spironolactone.

One may read the IC50 as the midpoint of a concentration-inhibition curve. Consider `CC1=C(CN(O)C(N)=O)C2=C(C)C3(CC3)[C@@](C)(O)C(=O)C2=C1` [LP-184, (−)-hydroxyureamethyl acylfulvene], for which the “tumor growth / tumor regression” value in data set [1] is given as “complete or near complete tumor regression”. Further, in [2], the “tumor regrowth (animals)” value was 5/5. Moreover, the IC50 in data set [3] (setting [12]) is 250 nM; in data set [3] (setting [13]), 37.6 nM; in [4] (setting [12]), 313 nM; in data set [4] (setting [13]), 94.3 nM; in [6] (setting [12]), 151 nM; in data set [6] (setting [13]), 39.7 nM. Further, the “decrease in LP-184 IC50s” value in data set [5] was 3-6 fold.

As to `CC1=C(CN(O)C(N)=O)C2=C(C)C3(CC3)[C@](C)(O)C(=O)C2=C1` [LP-284, (+)-hydroxyureamethyl acylfulvene], in data set [7] (by 10 μM spironolactone), the “reduction of LP-284 IC50” value amounted to 2.4 fold.

Take `CC(=O)SC1CC2=CC(=O)CCC2(C)C2CCC3(C)C(CCC34CCC(=O)O4)C12` (stereo not drawn) [Spironolactone, 7α-Acetylthiospirolactone]: the cytotoxicity entry in data set [7] (10 μM spironolactone treatment alone) is recorded as “did not cause cytotoxicity”. In addition, the “ERCC3 protein level (western blot)” value at ERCC3 (M1123), at ERCC3 (Mayo39) and at ERCC3 (U87) was “time-dependent depletion” each time. The “tumor growth / tumor regression” value in data set [1] is given as “no effect on tumor growth”. Also, the growth rates entry in [8] is reported as “did not substantially change the growth rates”; in data set [9], “did not substantially change the growth rates; also recorded: did not change the cell growth rates”; in [3] (spironolactone alone), “did not substantially change the growth rates”. The cell growth rates result in data set [10] and in [11] was “did not change the cell growth rates” throughout.
